Source: patent US7202374B2, “Fullerene derivatives and their metal complexes” (Mitsubishi Chemical Corporation, priority 2002, dated 2007)

Assays:
[1] = Solubility in n-hexane (stir 1 hour, centrifuge, weigh dried residue of supernatant); format: physicochemical; details: for solubility in n-hexane: room temperature (25° C.), stirred 1 hour
Method: The solubility in n-hexane at 25° C. is determined as follows. In some detail, a predetermined amount of n-hexane is added to a fullerene derivative. The mixture is then stirred at 25° C. for 1 hour. The resulting slurry is then subjected to centrifugal separation. The solution is then decanted. The solvent is then distilled off the resulting supernatant liquid. The resulting precipitate is dried in vacuo, and then measured for weight. Thus, the solubility in n-hexane at 25° C. is calculated.
To 100 mg of C60[CH2Si(CH3)3]5H was added 0.5 ml of n-hexane. The mixture was then stirred at 25° C. for 1 hour. The slurry was purified, and then subjected to centrifugal separation by a centrifugal separator. The resulting supernatant liquid was withdrawn. The solvent was then distilled off. The residue was then dried in vacuo. The weight of the residue was then measured. The result was 32.5 mg.

[2] = Stability of the solid at room temperature in the air; format: physicochemical; details: solid (brown powder)

solubility in n-hexane [1] | solubility in n-hexane measured at 50° C. ([1]; 50° C., otherwise same conditions as in Example 1) | stability when solid [2] | Substance
about 0.05 mg/ml | about 0.2 mg/ml |  | C60[CH2Si(CH3)3]2
11 mg/mL |  | stable at room temperature in the air | C60{CH2Si(CH3)3}3H
5.0 mg/mL |  |  | Rh[C60{CH2Si(CH3)3}3](1,5-cyclooctadiene)

Continued, substance first:

Substance | solubility in n-hexane [1] | solubility in n-hexane measured at 50° C. ([1]; 50° C., otherwise same conditions as in Example 1) | stability when solid [2]
(C6H5)5C60H | less than 0.001 mg/ml |  | 
(CH3)5C60H | less than 0.001 mg/ml |  | 
C60[CH2Si(CH3)3]5H | 65 mg/mL |  | stable at room temperature in the air
